According to US11987637B1, “Prevention of disulfide bond reduction during recombinant production of polypeptides” (Genentech, Inc., priority 2007, dated 2024):

Assays:
[1] = system: ocrelizumab disulfide bond reduction in HCCF; assay: Lab scale HCCF hold time study: percentage of intact antibody in protein A elution pools; type: biochemical, CHO; conditions: for intact (150 kDa) antibody remaining in protein A elution pools: FIG. 19 legend, HCCF hold
[2] = system: ocrelizumab reduction in HCCF (Trx system, G6PD, hexokinase); assay: HCCF incubation experiment in mini-tanks, Bioanalyzer assay
[3] = molecular target: G6PD (Homo sapiens, UniProt P11413); conditions: cited from earlier work
Chain of G6PD (P11413 whole entry): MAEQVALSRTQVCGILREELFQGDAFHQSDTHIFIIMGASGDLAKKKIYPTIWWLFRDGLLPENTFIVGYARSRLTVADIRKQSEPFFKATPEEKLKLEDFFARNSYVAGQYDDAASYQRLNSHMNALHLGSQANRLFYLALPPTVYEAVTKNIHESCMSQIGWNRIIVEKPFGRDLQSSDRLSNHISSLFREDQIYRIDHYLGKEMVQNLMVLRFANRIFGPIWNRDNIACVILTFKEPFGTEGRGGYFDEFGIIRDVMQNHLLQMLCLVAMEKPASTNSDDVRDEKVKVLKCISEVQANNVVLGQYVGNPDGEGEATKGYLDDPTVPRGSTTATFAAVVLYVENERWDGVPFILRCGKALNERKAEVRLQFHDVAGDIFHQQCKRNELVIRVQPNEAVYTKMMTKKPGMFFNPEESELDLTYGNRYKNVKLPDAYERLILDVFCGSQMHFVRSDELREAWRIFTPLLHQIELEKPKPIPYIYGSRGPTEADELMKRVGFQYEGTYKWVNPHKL

[4] = system: hexokinase, glucose-6-phosphate dehydrogenase, thioredoxin, thioredoxin reductase; assay: Reconstructed enzymatic reduction system, Bioanalyzer assay; conditions: inhibitor 0.1 mM
[5] = system: antibody disulfide bond reduction in CCF/HCCF; assay: Minimum effective inhibitor concentration to prevent antibody disulfide reduction in the CHO production process; type: biochemical; conditions: for minimum effective inhibitory concentration as multiple of antibody concentration: usual
[6] = molecular target: T1, thioredoxin system (Trx, TrxR, NADPH) (Rattus norvegicus, UniProt O89049); assay: In vitro Trx/TrxR study in PBS: reduction of ocrelizumab, Bioanalyzer assay; conditions: inhibitor 1 mM, PBS (FIGS. 6, 7)
T1 sequence (O89049 1-499): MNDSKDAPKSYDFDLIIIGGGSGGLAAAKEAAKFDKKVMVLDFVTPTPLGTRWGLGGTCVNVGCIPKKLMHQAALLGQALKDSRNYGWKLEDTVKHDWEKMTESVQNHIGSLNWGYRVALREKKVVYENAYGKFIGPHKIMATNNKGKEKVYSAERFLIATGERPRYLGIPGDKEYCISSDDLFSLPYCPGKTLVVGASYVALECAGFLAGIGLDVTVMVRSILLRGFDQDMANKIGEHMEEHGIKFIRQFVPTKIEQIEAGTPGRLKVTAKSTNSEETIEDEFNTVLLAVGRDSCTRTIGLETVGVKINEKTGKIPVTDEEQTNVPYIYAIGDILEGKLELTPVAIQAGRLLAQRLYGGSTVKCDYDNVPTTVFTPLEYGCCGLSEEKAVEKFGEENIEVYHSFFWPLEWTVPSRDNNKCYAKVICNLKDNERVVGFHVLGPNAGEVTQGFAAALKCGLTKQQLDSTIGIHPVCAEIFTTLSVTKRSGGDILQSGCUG
Experimental: (§1) A commercial TrxR (rat liver) solution (4 μM) was diluted with water to yield a 2.86 μM solution. Lyophilized Trx (human) was reconstituted with PBS (10 mM, pH 7.2) yielding a 500 μM solution. A solution of 20 mM NADPH and 10 mM ATG and ATM solutions were prepared in water.
In a black polypropylene 1.5 mL micro centrifuge tube, 437 μL PBS, 25 μL NADPH, 16 μL formulated ocrelizumab solution (30.2 mg/mL) and 5 μL Trx were gently mixed. The reaction was initiated by the addition of 17.5 μL TrxR. The reaction was incubated at room temperature for 24 hours. Aliquots of 20 μL were taken at each sampling time-point and stored at −70° C. until analyzed by the Bioanalyzer assay (see below).

[7] = molecular target: T1, thioredoxin system (Trx, TrxR, NADPH); assay: In vitro Trx/TrxR study in histidine sulfate buffer: reduction of ocrelizumab, Bioanalyzer assay; conditions: for minimum inhibitory concentration as multiple of TrxR concentration: typical
Experimental: as §1
In a black polypropylene 1.5 mL micro centrifuge tube, 437 μL reaction buffer (10 mM histidine, 10 mM Na2SO4, 137 mM NaCl, 2.5 mM KCl, pH 7.0), 25 μL NADPH, 16 μL formulated ocrelizumab solution (30.2 mg/mL) and 5 μL Trx were gently mixed. The reaction was initiated by the addition of 17.5 μL TrxR. The reaction was incubated at room temperature for 24 hours. Aliquots of 20 μL were taken at each sampling time-point and stored at −70° C. until analyzed by the Bioanalyzer assay.

[8] = system: ocrelizumab disulfide bond reduction in HCCF; assay: Air sparging of HCCF: percentage of intact antibody in protein A elution pools
Experimental: To evaluate air sparging of the HCCF generated from homogenized CCF to prevent antibody disulfide reduction, 3-L glass or 15-L stainless steel vessels were utilized.
Approximately 1-5 L of HCCF was 0.22 μm sterile filtered into each sterilized vessel. Experimental conditions were maintained at 18-22° C. and 50 (15-L fermentor) or 275 rpm (3-L fermentor) agitation either with or without pH control by the addition of carbon dioxide. Solutions were either sparged with air to increase the dissolved oxygen level to air saturation or with nitrogen (control) to remove any dissolved oxygen in solution. Gas flow to each vessel was variable dependent upon whether a constant aeration rate was used or a minimum level of dissolved oxygen was maintained. At pre-determined time points, 25-50 mL samples were removed from both vessels and purified over a lab scale protein A affinity resin prior to analysis.
The antibody concentration in the purified protein A pool was measured using UV spectrometry at 280 nm. The purified protein A elution pools were analyzed by the Bioanalyzer assay to quantitate the percentage of intact antibody at 150 kDa molecular weight.
One HCCF mixture generated from homogenized CCF was stored and held in two separate L stainless steel fermentors. One vessel was sparged with air while the other vessel was sparged with nitrogen gas. The ocrelizumab antibody was purified immediately (t=0 hr) from the initial mixture using protein A chromatography. At selected time points, 50 mL samples were removed from each vessel and the antibody was purified using protein A chromatography. Purified protein A elution pools were then analyzed by the Bioanalyzer assay to quantitate the percentage of intact antibody at 150 kDa.

[9] = system: ocrelizumab reduction in HCCF; assay: Dialysis experiment: ocrelizumab in dialysis bag (MWCO 7000) incubated in HCCF; conditions: ocrelizumab outside the bag in the HCCF (FIG. 2)
Experimental: A dialysis experiment was carried out in order to determine whether the components causing reduction of ocrelizumab were small molecules or macromolecules (i.e. enzymes). A sample of 3 mL of purified and formulated ocrelizumab (30.2 mg/mL) was dialyzed against 1 L of phosphate buffered saline (PBS, 10 mM pH 7.2) for 24 hours and the PBS was changed after 8 hours. The concentration of the ocrelizumab sample was then adjusted to 1 mg/mL using the absorbance at 280 nm. Aliquots were stored at −70° C. prior to use. Dialysis tubing was hydrated overnight in a 0.05% azide solution and rinsed with sterile water prior to use. The HCCF obtained from homogenization of CCF from a 3-L fermentor was thawed and filtered through a 0.22 μm Millipak filter using a peristaltic pump. Six short mini-tanks were filled with 30 mL of HCCF each. To each mini-tank, 500 μL of ocrelizumab sample in sealed dialysis tubing was added.
A dialysis experiment was designed and carried out to determine if the reduction of ocrelizumab was caused by small reducing molecules or macromolecules (e.g., enzymes). In this dialysis experiment, purified intact ocrelizumab was placed in a dialysis bag with a molecular weight cut off (MWCO) of 7000 and incubated the dialysis bag in HCCF containing ocrelizumab in a stainless steel mini-tank.

[10] = inhibitor 1 mM, HCCF from homogenized CCF of a 3-L fermentor (FIGS. 11, 12)
[11] = inhibitor 2.6 mM (FIGS. 38, 39)
[12] = added pre-lysis, antibody 2H7 (Variant A)

Compound: O=S(=O)([O-])[O-].[Cu+2] [CuSO4, cupric sulfate]
- intact (150 kDa) antibody remaining in protein A elution pools [1]: ~100%

Compound: C[C@]12CC[C@H](O)CC1=CC[C@@H]1[C@@H]2CC[C@]2(C)C(=O)CC[C@@H]12 [DHEA, dehydroepiandrosterone]
- inhibition of antibody reduction in HCCF ([2]; DHEA added to HCCF, concentration not given): prevents antibody reduction
- G6PD inhibition [3]: effectively blocks G6PD activity
- inhibition of ocrelizumab reduction [4]: does not inhibit the reduction

Compound: O=C(O)CN(CCN(CC(=O)O)CC(=O)O)CC(=O)O [EDTA, ethylenediaminetetraacetic acid]
- inhibition of ocrelizumab reduction in HCCF ([2]; 20 mM EDTA with 5 mM G6P, beta run HCCF that had fully lost reducing activity (FIG. 18)): unable to prevent the reduction
- inhibition of ocrelizumab reduction in HCCF ([2]; 20 mM EDTA, HCCF from 12,000 L manufacturing run (alpha run) (FIG. 17)): completely inhibited
- intact (150 kDa) antibody remaining in protein A elution pools [1]: ~100%
- minimum effective concentration ([5]; antibody 2H7 (Variant A)): about 10 mM

Compound: NC(=O)C1=CN([C@@H]2O[C@H](COP(=O)(O)OP(=O)(O)OC[C@H]3O[C@@H](n4cnc5c(N)ncnc54)[C@H](OP(=O)(O)O)[C@@H]3O)[C@@H](O)[C@H]2O)C=CC1 [NADPH, α-nicotinamide adenine dinucleotide phosphate]
- restoration of lost reduction activity in HCCF ([2]; 5 mM NADPH, beta run HCCF after several freeze/thaw cycles (FIG. 14)): the reduction event returned

Compound: O=C[C@H](O)[C@@H](O)[C@H](O)[C@H](O)COP(=O)(O)O [Variant G6P, glucose-6-phosphate]
- restoration of lost reduction activity in HCCF ([2]; 10 mM G6P, repeatedly freeze-thawed beta run HCCF (FIG. 15)): reactivated the Trx system

Compound: OC[C@H]1O[C@H]([S-])[C@H](O)[C@@H](O)[C@@H]1O.[Au+] [aurothioglucose]
- inhibition of ocrelizumab reduction by Trx system [6]: effectively inhibited the ocrelizumab reduction
- inhibition of ocrelizumab reduction in HCCF [2, 10]: completely inhibited
- inhibition of ocrelizumab reduction by Trx system ([7]; inhibitor 0.2 μM (2:1 ATG:TrxR), after 24 hours (FIG. 28)): cannot inhibit ocrelizumab reduction
- inhibition of ocrelizumab reduction by Trx system ([7]; inhibitor 0.4 μM (4:1 ATG:TrxR) (FIG. 27)): effectively inhibits the reduction of ocrelizumab
- inhibition of ocrelizumab reduction by Trx system ([7]; inhibitor 0.6 μM (6:1 ATG:TrxR) (FIG. 26)): effectively inhibits the reduction of ocrelizumab
- inhibition of ocrelizumab reduction by Trx system ([7]; inhibitor 1 mM (FIG. 25)): effectively inhibits the reduction of ocrelizumab
- minimum inhibitory concentration as multiple of TrxR concentration [7]: around 4 × TrxR concentration

Compound: O=C(O)CC([S-])C(=O)O.[Au+] (stereo not drawn) [aurothiomalate]
- inhibition of ocrelizumab reduction by Trx system [6]: effectively inhibited the ocrelizumab reduction
- inhibition of ocrelizumab reduction in HCCF [2, 10]: completely inhibited
- inhibition of ocrelizumab reduction by Trx system ([7]; inhibitor 0.01 mM (FIG. 30)): effectively inhibits the reduction of ocrelizumab
- inhibition of ocrelizumab reduction by Trx system ([7]; inhibitor 0.1 mM (FIG. 29)): effectively inhibits the reduction of ocrelizumab
- minimum inhibitory concentration as multiple of TrxR concentration [7]: around 4 × TrxR concentration

Compound: NCCSSCCN [cystamine]
- inhibition of ocrelizumab reduction by Trx system ([7]; inhibitor 26.6 μM (1:1 cystamine:2H7 disulfide), after 24 hours (FIG. 37)): insufficient to inhibit the reduction of ocrelizumab
- inhibition of ocrelizumab reduction by Trx system ([7]; inhibitor 133 μM (5:1 cystamine:2H7 disulfide), after 24 hours (FIG. 36)): insufficient to inhibit the reduction of ocrelizumab
- inhibition of ocrelizumab reduction by Trx system ([7]; inhibitor 266 μM (10:1 cystamine:2H7 disulfide) (FIG. 35)): effectively inhibits thioredoxin-induced reduction of ocrelizumab
- inhibition of ocrelizumab reduction by Trx system ([7]; inhibitor 532 μM (20:1 cystamine:2H7 disulfide) (FIG. 34)): effectively inhibits thioredoxin-induced reduction of ocrelizumab
- minimum effective inhibitory concentration as multiple of antibody concentration [5]: about 40 × of the antibody concentration (in μM)

Compound: N[C@@H](CSSC[C@H](N)C(=O)O)C(=O)O [cystine]
- inhibition of ocrelizumab reduction by Trx system [7, 11]: effectively inhibits reduction of ocrelizumab
- minimum effective concentration ([5]; added in the cell culture medium, 2H7 (Variant A)): about 5.2 mM
- minimum effective concentration ([5]; added in the cell culture medium, Apomab): ~6 mM
- minimum effective concentration ([5]; added in the cell culture medium, antibody Variant C): ~9 mM
- minimum effective concentration ([5]; added pre-lysis, Apomab): about 1 mM
- minimum effective concentration [5, 12]: about 1.3 mM
- minimum effective concentration ([5]; added pre-lysis, antibody Variant C): about 4.5 mM
- minimum effective inhibitory concentration as multiple of antibody concentration [5]: about 40 × of the antibody concentration (in μM)

Compound: ocrelizumab: humanized anti-CD20 antibody 2H7 Variant A: VL SEQ ID NO:1, VH SEQ ID NO:2, L chain SEQ ID NO:6, H chain SEQ ID NO:7
- ocrelizumab reduction in HCCF, no addition ([2]; HCCF from 12,000 L manufacturing run, ambient temperature, more than 19 hours (FIG. 16)): reduced
- ocrelizumab reduction in HCCF, no addition ([2]; HCCF from homogenized CCF of a 3-L fermentor (FIG. 10)): readily reduced
- ocrelizumab reduction in HCCF, no addition ([2]; beta run HCCF after several freeze/thaw cycles (FIG. 13)): no ocrelizumab reduction was observed
- intact (150 kDa) antibody remaining in protein A elution pools ([8]; HCCF sparged with air, FIG. 20 legend): ~100%
- ocrelizumab reduction ([8]; control HCCF after 5 hours of sparging with nitrogen, FIG. 20 legend): almost completely reduced
- percentage of intact antibody at 150 kDa ([8]; initial solution, t=0 hr): approximately 85%
- percentage of intact antibody at 150 kDa ([8]; sparged with nitrogen gas, 2 hr): 28%
- percentage of intact antibody at 150 kDa ([8]; sparged with nitrogen gas, 6 hr): 5%
- reduction of ocrelizumab [9]: significantly reduced
- intact antibody (150 kDa) ([1]; control mixture without any addition, 20 hr): not detected

Compound: oxidized glutathione [GSSG]
- inhibition of ocrelizumab reduction by Trx system [7, 11]: effectively inhibits reduction of ocrelizumab
- minimum effective concentration [5, 12]: about 1.3 mM
- minimum effective inhibitory concentration as multiple of antibody concentration [5]: about 40 × of the antibody concentration (in μM)
